Assay results published in PubChem BioAssay AID712 (Emory University Molecular Libraries Screening Center, 2007).
The source made the active and inactive calls. The rule behind the calls is not given here.

Biological target: Heat shock protein HSP 90-alpha (Homo sapiens) (UniProt P07900)
Assay: tumor Hsp90 inhibitor potency, dose response (AID 712)
Settings: Hsp90 inhibition assay

| Compound | IC50 |
| --- | --- |
| CCn1c(CSc2nnc3ccccn23)nc2cc(C(=O)O)ccc21 | 1.11 µM |
| C=CCn1c(N)c(C(=O)OCC(C)C)c2nc3ccccc3nc21 | > 50 µM (inactive) |
| N#Cc1cc(S(=O)(=O)Nc2cc(O)cc3cccnc23)ccc1F | inactive |
| CCOC(=O)c1oc2c(O)c(O)ccc2c(=O)c1-c1nncn1-c1ccccc1 | 24.1 µM |
| Oc1c(Cl)cc(Cl)c2cccnc12 | > 50 µM (inactive) |
| Cc1cc(=O)oc2c(N)c(OCc3ccccc3)ccc12 | > 50 µM (inactive) |
| CCCCCC(=O)N1CC2(C)CN(C(=O)CCCCC)CC(C)(C1)C2=O | > 50 µM (inactive) |
| O=C1c2ccccc2C(Nc2ccc3c(c2)OCO3)N1Cc1ccc2c(c1)OCO2 (centres undefined) | > 50 µM (inactive) |
| CC(C)(C)OC(=O)Nc1cccc(NS(=O)(=O)c2cc(Cl)ccc2Cl)c1-c1ccccc1O | > 50 µM (inactive) |
| C[C@H]1CCC[C@H](O)CCCCCc2cc(O)cc(O)c2C(=O)O1 | 2.65 µM |
| CCc1ccc(CNc2ccc(N3CCN(C(C)=O)CC3)cc2)cc1 | inactive |
| Cc1ccc(S(=O)(=O)Nc2ccc3oc(=O)sc3c2)c(C)c1 | inactive |
| CCOc1ccc2ccccc2c1-c1cc(NS(=O)(=O)c2ccc(C)cc2)ccc1N | > 50 µM (inactive) |
| Oc1ccc(-c2nc(-c3ccc(O)c(O)c3)cs2)cc1 | 0.74 µM |
| OCCN(CCO)c1nc(N2CCCCC2)c2nc(N(CCO)CCO)nc(N3CCCCC3)c2n1 | 21.1 µM |
| CCS(=O)(=O)NCc1ccc2[nH]c3c(c2c1)CCCC3 | 29.2 µM |
| O=[N+]([O-])c1ccc(S(=O)(=O)Nc2cc(OCc3ccccc3)cc3cccnc23)cc1F | > 50 µM (inactive) |
| Oc1cccc2cccnc12 | > 50 µM (inactive) |
| Cc1cc(=O)oc2c(N)c(O)ccc12 | > 50 µM (inactive) |
| Cn1c(=O)c2c(nc(CN3CCc4ccccc4C3)n2CCCO)n(C)c1=O | > 50 µM (inactive) |
| O=C1C2C3C=CC(C3)C2C(=O)N1CNc1ccc(O)cc1 (centres undefined) | 14.7 µM |
| CCOc1ccc(NCC(=O)Nc2ccc(C)cc2C)cc1 | 7.86 µM |
| COc1ccc(NS(=O)(=O)c2ccccc2)c(OC)c1 | > 50 µM (inactive) |
| Nc1cccc(S(=O)(=O)Nc2ccc(O)c(-c3ccccc3O)c2)c1 | > 50 µM (inactive) |
| O=C1C(c2cnc3ccccc3n2)=C(O)c2ccccc21 | 20 µM |
| N#CCSc1nnc2[nH]c(=O)cc(N)n12 | > 50 µM (inactive) |
| Cc1ccccc1OCC(O)Cn1c(NCCN(C)C)nc2c1c(=O)n(C)c(=O)n2C (centres undefined) | > 50 µM (inactive) |
| Nc1cccc2cccnc12 | > 50 µM (inactive) |
| O=C1c2ccccc2C(O)(O)C1(O)C1(O)C(=O)c2ccccc2C1(O)O (centres undefined) | 5 µM |
